What was measured:
[1] = Acute toxicity, oral, in mice (Miller and Tainter); conditions: mouse, in vivo, read-out: Acute toxicity LD 50
Experimental: The acute toxicity is determined orally on mice according to the method described by MILLER and TAINTER in Proc. Soc. Exp. Biol. Med. 57, 261 (1944).

A type monoamine oxidase = test: Ex vivo monoamine oxidase inhibition in rat brain homogenate, serotonine substrate; set-up: unit not given here; conditions: rats, 5 mg/kg p.o.; for Monoamine oxidase inhibition effect, A Type monoamine oxidase, 8 hours: 8 hours after administration; for Monoamine oxidase inhibition effect, A Type monoamine oxidase, 24 hours: 24 hours after administration; for Monoamine oxidase inhibition effect, A Type monoamine oxidase, max.: maximum effect observed between 30 minutes and 8 hours
Experimental: (§1) This activity has been shown ex vivo on rats to which are orally administered the compounds employed in the invention as a 0.5% suspension in methylcellulose. Then the rats are decapitated at various times (30 mn, 1 hour, 2 hours, 4 hours, 8 hours and 24 hours after the administration). The brains are taken up, weighed and homogeneized and the determination of the monoamine oxidase inhibition effect is carried out by using serotonine (specific substrate of the A type monoamine oxidase) and phenylethylamine (specific substrate of B type monoamine oxidase) according to the method described by J. P. KAN and M. STROLIN-BENEDETTI in Life Sciences 26, 2165 (1980).
(§2) To illustrate the invention, in table below the results thus obtained are given. (The maximum effect is that observed between 30 minutes and 8 hours).

B type monoamine oxidase = test: Ex vivo monoamine oxidase inhibition in rat brain homogenate, phenylethylamine substrate; set-up: unit not given here; conditions: rats, 5 mg/kg p.o.; for Monoamine oxidase inhibition effect, B Type monoamine oxidase, 8 hours: 8 hours after administration; for Monoamine oxidase inhibition effect, B Type monoamine oxidase, 24 hours: 24 hours after administration; for Monoamine oxidase inhibition effect, B Type monoamine oxidase, max.: maximum effect observed between 30 minutes and 8 hours
Experimental: as §1, §2

Row | Structure (SMILES) | LD50 [1] [mg/kg] | Monoamine oxidase inhibition effect, A Type monoamine oxidase, 8 hours (A type monoamine oxidase) | Monoamine oxidase inhibition effect, A Type monoamine oxidase, 24 hours (A type monoamine oxidase) | Monoamine oxidase inhibition effect, A Type monoamine oxidase, max. (A type monoamine oxidase) | Monoamine oxidase inhibition effect, B Type monoamine oxidase, 8 hours (B type monoamine oxidase) | Monoamine oxidase inhibition effect, B Type monoamine oxidase, 24 hours (B type monoamine oxidase) | Monoamine oxidase inhibition effect, B Type monoamine oxidase, max. (B type monoamine oxidase)
1 | NCC1CN(c2ccc(OCc3cccc(Cl)c3)cc2)C(=O)O1 (stereo not shown) [m-chlorobenzyl, amino] | > 2000 | 18 | 6 | 30 | 85 | 67 | 88
2 | CNCC1CN(c2ccc(OCc3ccc(F)cc3)cc2)C(=O)O1 (stereo not shown) [p-fluorobenzyl, N--methylamino] | > 2000 | 23 | 0 | 44 | 63 | 27 | 85
3 | CNCC1CN(c2ccc(OCc3cccc(Cl)c3)cc2)C(=O)O1 (stereo not shown) [m-chlorobenzyl, N--methylamino] | > 2000 | 12 | 1 | 28 | 67 | 27 | 83
4 | NCC1CN(c2ccc(OCc3ccccc3)cc2)C(=O)O1 (stereo not shown) [benzyl, amino] | > 2000 | 4 | 4 | 19 | 69 | 45 | 85
5 | CNCC1CN(c2ccc(OCc3ccccc3)cc2)C(=O)O1 (stereo not shown) [benzyl, N--methylamino] | > 2000 | 11 | 10 | 23 | 43 | 31 | 78
6 | CC(C)CCOc1ccc(N2CC(CN)OC2=O)cc1 (stereo not shown) [3-methylbutyl, amino] | > 2000 | 2 | 0 | 29 | 8 | 1 | 69
7 | NCC1CN(c2ccc(OCc3ccc(F)cc3)cc2)C(=O)O1 (stereo not shown) [p-fluorobenzyl, amino] | > 2000 | 20 | 3 | 43 | 82 | 61 | 88
8 | CNCC1CN(c2ccc(OCC3CCCCC3)cc2)C(=O)O1 (stereo not shown) [cyclohexylmethyl, N--methylamino] | > 2000 | 17 | 6 | 21 | 42 | 6 | 67
9 | NCC1CN(c2ccc(OCC3CCCC3)cc2)C(=O)O1 (stereo not shown) [cyclopentylmethyl, amino] | > 2000 | 9 | 0 | 30 | 17 | 2 | 78
10 | NCC1CN(c2ccc(OCC3CCCCC3)cc2)C(=O)O1 (stereo not shown) [cyclohexylmethyl, amino] | > 2000 | 13 | 5 | 23 | 60 | 3 | 81

— US4470993A, “Therapeutical use of known 5-aminomethyl oxazolidine-2-one derivatives” (Delalande S.A., priority 1982, dated 1984)
